Test results reported in patent publication US5872104A, “Combinations and methods for reducing antimicrobial resistance” (Oridigm Corporation, priority 1994, dated 1999).
Where two headings read alike, the source gives them in different places.

Legend:
cell culture = conditions: cited from earlier work
SAH hydrolase = conditions: cited from earlier work
L1210 cells [1] = conditions: absence of polyamine depletion; cited from earlier work
SAM pools in L1210 cells = conditions: cited from earlier work
SAM synthetase = conditions: cited from earlier work
L1210 cells [2] = experiment: Growth inhibition in L1210 cell culture; assay type: cell-based
SAHH hydrolase = conditions: cited from earlier work
[3] = tested on: 28S rRNA, 18S rRNA and tRNA; conditions: NPA 10 μM; c^3 -NPA 10 μM; c^3 -Ari 100 μM; cited from earlier work
[4] = tested on: S. aureus 27660 (erythromycin resistant); assay type: cell-based; conditions: for enhanced killing with erythromycin: in combination with erythromycin
cytotoxicity = conditions: cited from earlier work
[5] = tested on: N- and O-methylation of mRNA; conditions: 100 μM; cited from earlier work
[6] = tested on: rat SAM synthetase M-2 isozyme; conditions: cited from earlier work
[7] = tested on: rat SAM synthetase M-1 isozyme; conditions: cited from earlier work
viruses = conditions: cited from earlier work
murine L929 SAHH = conditions: cited from earlier work
adenosine deaminase = conditions: cited from earlier work
hamster liver SAHH = conditions: cited from earlier work
human liver SAHH = conditions: cited from earlier work
[8] = tested on: SAM-dependent methylations; conditions: cited from earlier work
polyamine biosynthesis = conditions: cited from earlier work
methyl transfer from SAM = conditions: cited from earlier work
vaccinia virus = conditions: cited from earlier work
malarial growth = conditions: read-out: ED50 (the source's name); cited from earlier work
[9] = tested on: vesicular stomatitis virus; conditions: primary rabbit kidney cells; cited from earlier work
human retrovirus = conditions: cited from earlier work
[10] = sc., rats; cited from earlier work
[11] = tested on: porcine liver tRNA methyltransferase; conditions: cited from earlier work
RNA methyltransferase = conditions: cited from earlier work
[12] = tested on: vaccinia virion mRNA(guanine-7)methyltransferase; conditions: 100 μM; cited from earlier work
[13] = tested on: RNA methyltransferase from Streptomyces antibioticus; conditions: 100 μM; cited from earlier work
[14] = dogs; cited from earlier work
[15] = tested on: cell transformation by Rous sarcoma virus; conditions: concentrations not toxic to normal cells; cited from earlier work
RNA methylation = conditions: cited from earlier work
poly(A)-RNA methylation = conditions: inhibitor level that still permitted cell growth; cited from earlier work
[16] = not told; cited from earlier work
tRNA methylases = conditions: cited from earlier work
[17] = tested on: vaccinia virion mRNA(nucleoside-2'-)methyltransferase; conditions: cited from earlier work
[18] = tested on: nucleosidase enzymes responsible for SAH metabolism; conditions: cited from earlier work
[19] = iv., mice; cited from earlier work
[20] = tested on: mature rRNA in Novikoff hepatoma cells; conditions: cited from earlier work
rRNA processing = conditions: cited from earlier work
[21] = tested on: tRNA methylases isolated from E. coli; conditions: cited from earlier work
glutathione = conditions: ip.; 4.5 mmol/kg buthionine sulfoximine and […] diethyl maleate; cited from earlier work
SAM-synthetase = conditions: in vivo; cited from earlier work
[22] = tested on: tumor-derived methionine adenosyltransferases; conditions: cited from earlier work
rat leukemia (BNML) = conditions: nitrous oxide plus cycloleucine; cited from earlier work
[23] = tested on: S. aureus 6538 (erythromycin susceptible); experiment: Erythromycin disk susceptibility with inhibitor pre-mixed in agar; assay type: cell-based; conditions: inhibitor pre-mixed with BHIA or TSA, with erythromycin (FIG. 2)
[24] = tested on: internal m^6 A of late SV40 mRNA; conditions: 0.5 mg/ml; cited from earlier work
[25] = tested on: transfer and ribosomal RNA (tRNA and rRNA) methylases; conditions: cited from earlier work
Mycobacterium leprae = conditions: 12 μg/mouse every 12 hours, 15 doses, local; cited from earlier work

## Nc1ncnc2c1ncn2[C@@H]1C[C@H](O)[C@@H](O)[C@H]1O (relative stereo) [(±)-5-Noraristeromycin]
Cell culture
  times less cytotoxic: 10 to 20 times
SAH hydrolase
  SAH hydrolase inhibition: inhibitors of SAHH

## CO/C=C\[C@H](N)C(=O)O (stereo in doubt) [L-cis-AMB, L-2-amino-4-methoxy-cis-but-3-enoic acid]
L1210 cells [1]
  IC50: 400 µM
SAM pools in L1210 cells; 1 mM, cultured L1210 cells
  depletion of SAM: rapid and near-total depletion of SAM by 4 hours
SAM pools in L1210 cells; intact cells
  SAM pools in intact cells: rapidly depleting SAM pools in intact cells without affecting precursor incorporation into macromolecules
SAM synthetase
  SAM synthetase inhibition: most potent methionine-analogue inhibitor of SAM synthetase at that time
L1210 cells [2]
  IC50, fold lower than that of cycloleucine: about 10 fold

## Nc1nccc2c1ncn2[C@@H]1C=C(CO)[C@@H](O)[C@H]1O [3-Deazaneplanocin A, 3-deazaneplanocin A]
SAHH hydrolase
  antiviral activity and cytotoxicity vs first generation: retained antiviral activity and considerably lower cytotoxicity than their parent first generation inhibitors
[3]
  methylation of 28S rRNA, 18S rRNA and tRNA: inhibit the methylation of 28S rRNA, 18S rRNA and tRNA
[4]
  enhanced killing with erythromycin: enhanced the killing
cytotoxicity
  cytotoxicity relative to neplanocin A: significantly less cytotoxic than neplanocin A

## Nc1nccc2c1ncn2[C@@H]1O[C@H](CO)[C@@H](O)[C@H]1O [3-deazaadenosine]
[5]
  inhibition of N- and O-methylation of mRNA: 31-83%

## Nc1ncnc2c1ncn2[C@@H]1O[C@H]([C@H](CSCC[C@H](N)C(=O)O)OP(=O)(O)OP(=O)(O)NP(=O)(O)O)[C@@H](O)[C@H]1O [5'(R)-(C)-[(L-homocysteine-S-yl)methyl]adenosine 5'-(β,γ-imidotriphosphate)]
[6]
  inhibition: most effective inhibitor
[7]
  inhibition: most effective inhibitor

## CC(O)C1=C[C@@H](n2cnc3c(N)ncnc32)[C@H](O)[C@@H]1O (stereo partly shown) [6'-C-methylneplanocin A]
viruses
  antiviral potency and selectivity vs neplanocin A: surpassing neplanocin A both in antiviral potency and selectivity
Murine L929 SAHH
  SAHH inhibition: good inhibitor of murine L929 SAHH
Adenosine deaminase
  resistance to adenosine deaminase: virtually resistant to adenosine deaminase

## Nc1ncnc2c1ncn2[C@@H]1O[C@H](CO)[C@@H](O)[C@H]1Cl [CLA, 2'-deoxy-2'-chloroadenosine]
Hamster liver SAHH
  inhibition: inhibitor
Human liver SAHH
  inhibition: inhibitor

## CSC[C@H]1O[C@@H](n2cnc3c(N)ncnc32)[C@H](O)[C@@H]1O [Methylthioadenosine, 5'-Deoxy-5'-(methylthio)adenosine]
[8]
  inhibition of SAM-dependent methylations: inhibitor of several SAM-dependent methylations
Polyamine biosynthesis
  inhibition of spermine and spermidine synthesis: inhibitor of spermine and spermidine synthesis
[4]
  enhanced killing with erythromycin: enhanced the killing
Methyl transfer from SAM
  inhibition: effective inhibitors

## Nc1ncnc2c1ncn2[C@@H]1C=C(CO)[C@@H](O)[C@H]1O [NPA, neplanocin A]
Vaccinia virus; 0.5 μM
  inhibition of plaque formation: 84%
Vaccinia virus; 1 μM
  inhibition of plaque formation: 95%
Vaccinia virus; 0.5 and 1 μM
  toxicity to the host cells: little toxicity to the host cells
Malarial growth
  IC50: 3 µM
[9]
  minimum inhibitor concentration (50% reduction of cytopathogenicity): 0.018 µg/mL
Human retrovirus
  effective inhibitory concentration: ~0.2 µg/mL
SAH hydrolase; De Clercq & Cools (1985)
  Ki: 0.002 µM
SAH hydrolase
  SAH hydrolase inhibition: potent inhibitor of SAH hydrolase

## NC(=O)c1cccnc1 [Nicotinamide]
[10]
  LD50: 1680 mg/kg
[11]
  inhibition of tRNA methyltransferase: inhibition of porcine liver tRNA methyltransferase activity

## CNc1ncnc2c1ncn2[C@@H]1O[C@H](CSCC[C@H](N)C(=O)O)[C@@H](O)[C@H]1O [S-(N^6 -methyladenosyl)-L-homocysteine]
RNA methyltransferase
  potency relative to SAH: nearly as potent an RNA methyltransferase inhibitor as SAH
[12]
  inhibition: 85%

## Nc1ncnc2c1ncn2[C@@H]1O[C@H](CSCC[C@H](N)C(=O)O)[C@@H](O)[C@H]1O [S-Adenosylhomocysteine, S-adenosylhomocysteine]
[13]
  inhibition: 97%
[14]
  uptake and excretion: not taken up and excreted unchanged in urine
Methyl transfer from SAM
  inhibition: effective inhibitors

## CC(C)CSC[C@H]1O[C@@H](n2cnc3c(N)ncnc32)[C@H](O)[C@@H]1O [SIBA, 5'-deoxy-5'-S-isobutyl-adenosine]
[15]
  potency as inhibitor: most potent
[13]
  inhibition: 55%
RNA methylation; 1 mM
  inhibition of RNA methylation: ~ 65%
RNA methylation
  inhibition of methylation in whole cells: strongly inhibit methylation in whole cells
RNA methylation; especially that of the 5' cap
  methylation of eukaryotic mRNA: inhibits the methylation of eukaryotic mRNA

## Nc1ncnc2c1ccn2[C@@H]1O[C@H](CSCCC(N)C(=O)O)[C@@H](O)[C@H]1O (stereo partly shown) [STH, S-Tubercidinylhomocysteine]
poly(A)-RNA methylation
  inhibition of poly(A)-RNA methylation: Inhibition of cytoplasmic methylation
[16]
  membrane permeation: able to permeate cell membranes
tRNA methylases
  inhibition of tRNA methylases relative to SAH: retains the inhibitory potency of SAH on tRNA methylases
[17]
  inhibition: particularly potent inhibitor
[18]
  susceptibility to nucleosidase: not susceptible to the nucleosidase enzymes

## Nc1ncnc2c1ccn2[C@@H]1O[C@H](CO)[C@@H](O)[C@H]1O [Tubercidin, 7-deazaadenosine]
[19]
  LD50: 45 mg/kg
[20]
  formation of mature rRNA: inhibit the formation of mature 28S and 18
rRNA processing
  rRNA processing: inhibits rRNA processing in addition to methylation of tRNA and protein and nucleic acid synthesis
[21]
  inhibition of E. coli tRNA methylases: inhibitory to tRNA methylases isolated from E. coli
SAH hydrolase
  SAH hydrolase inhibition: inhibits SAHH

## CCCCS(=N)(=O)CCC(N)C(=O)O (stereo not shown) [buthionine sulfoximine, CH3 (CH2)2 S (O)(=NH)CH2 CH2 CH(NH2)COOH]
glutathione
  depletion of glutathione: depleted liver and aortic glutathione
SAM-synthetase
  SAM-synthetase activity, % of untreated animals: about 40%

## NC1(C(=O)O)CCCC1 [cycloleucine, 1-aminocyclopentane-1-carboxylic acid]
[22]
  inhibition: effective inhibitors
L1210 cells [1]
  IC50: 5000 µM
SAM synthetase
  SAM synthetase inhibition: inhibitor of SAM synthetase
[4]; 0.1M in Brain Heart Infusion Agar (FIG. 3)
  improved killing, increase over control: 240%
[4]; inhibitor pre-mixed with BHIA or TSA, with erythromycin (FIG. 3)
  increase in the size of the clear zone: increase in the size of the clear zone
Rat leukemia (BNML)
  growth inhibiting effects: synergistic growth inhibiting effects
[23]
  increase in the size of the clear zone: increase in the size of the clear zone
[24]
  decrease in internal m^6 A: > 30%

## polyinosinate
[25]
  combination with adenine and adenosine: particularly effective in combination with adenine and adenosine
  inhibition of tRNA and rRNA methylases: inhibits transfer and ribosomal RNA (tRNA and rRNA) methylases
[25]; methylases of individual bases
  inhibition by base: inhibition of adenine methylases occurred to the greatest extent and guanine methylases to the least
Mycobacterium leprae
  multiplication of M. leprae: inhibit multiplication of Mycobacterium leprae
